Experimental data: article PMC3677030 (ChemMedChem, 2012)
Like-named read-outs stand apart in the source and are kept apart here.

Assays:
[1] = target: T1, EphA2-ephrin-A1 interaction (EphA2-Fc ectodomain) (Mus musculus, UniProt Q03145); assay type: binding; details: for Activity in EphA2-ephrin-A1 binding assay, in words: tested starting from 200 μM; for Schild plot slope: slope between 0.8 and 1.2 indicates competitive binding
[2] = test system: insulin-like growth factor receptor 1; details: cited from earlier work
EGF receptor [3] = target: T2, EGF receptor (Homo sapiens, UniProt P00533); details: cited from earlier work
VEGF receptor = details: cited from earlier work
insulin receptor = details: cited from earlier work
[4] = target: T1, EphA2-ephrin-A1 interaction (EphA2-Fc ectodomain); details: read-out: Ki, competitive antagonist of the EphA2 receptor; earlier work; cited from earlier work
[5] = test system: EphA receptors (vs EphB receptors); assay type: binding; details: compared with lithocholic acid
EGF receptor [6] = target: T2, EGF receptor; assay: EGF receptor phosphorylation induced by EGF in PC3 cells; assay type: cell-based; details: up to 100 μM, 30 ng/ml EGF
EphA2 receptor [7] = target: EphA2 receptor (Homo sapiens, UniProt P29317); assay: EphA2 phosphorylation induced by ephrin-A1-Fc in PC3 cells; assay type: cell-based; details: no ephrin, data not shown
[8] = target: T3, recombinant human EphA2 kinase domain (Homo sapiens, UniProt P29317); assay: EphA2 kinase assay; assay type: biochemical; details: 100 μM, 30 minutes
T3 sequence (P29317 613-875 limits assumed): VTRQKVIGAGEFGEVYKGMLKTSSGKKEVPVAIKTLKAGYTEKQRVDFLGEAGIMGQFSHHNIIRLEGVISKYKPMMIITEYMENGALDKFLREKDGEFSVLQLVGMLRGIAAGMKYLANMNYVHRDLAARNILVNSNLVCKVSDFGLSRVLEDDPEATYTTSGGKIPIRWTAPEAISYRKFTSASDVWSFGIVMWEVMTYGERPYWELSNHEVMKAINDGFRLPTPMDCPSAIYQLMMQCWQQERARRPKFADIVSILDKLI

EphB4 receptor = target: T4, EphB4 receptor (Homo sapiens, UniProt P54760); assay: EphB4 phosphorylation induced by ephrin-B2-Fc in T47D cells; assay type: cell-based; details: no ephrin, data not shown
T4 sequence (P54760 16-987): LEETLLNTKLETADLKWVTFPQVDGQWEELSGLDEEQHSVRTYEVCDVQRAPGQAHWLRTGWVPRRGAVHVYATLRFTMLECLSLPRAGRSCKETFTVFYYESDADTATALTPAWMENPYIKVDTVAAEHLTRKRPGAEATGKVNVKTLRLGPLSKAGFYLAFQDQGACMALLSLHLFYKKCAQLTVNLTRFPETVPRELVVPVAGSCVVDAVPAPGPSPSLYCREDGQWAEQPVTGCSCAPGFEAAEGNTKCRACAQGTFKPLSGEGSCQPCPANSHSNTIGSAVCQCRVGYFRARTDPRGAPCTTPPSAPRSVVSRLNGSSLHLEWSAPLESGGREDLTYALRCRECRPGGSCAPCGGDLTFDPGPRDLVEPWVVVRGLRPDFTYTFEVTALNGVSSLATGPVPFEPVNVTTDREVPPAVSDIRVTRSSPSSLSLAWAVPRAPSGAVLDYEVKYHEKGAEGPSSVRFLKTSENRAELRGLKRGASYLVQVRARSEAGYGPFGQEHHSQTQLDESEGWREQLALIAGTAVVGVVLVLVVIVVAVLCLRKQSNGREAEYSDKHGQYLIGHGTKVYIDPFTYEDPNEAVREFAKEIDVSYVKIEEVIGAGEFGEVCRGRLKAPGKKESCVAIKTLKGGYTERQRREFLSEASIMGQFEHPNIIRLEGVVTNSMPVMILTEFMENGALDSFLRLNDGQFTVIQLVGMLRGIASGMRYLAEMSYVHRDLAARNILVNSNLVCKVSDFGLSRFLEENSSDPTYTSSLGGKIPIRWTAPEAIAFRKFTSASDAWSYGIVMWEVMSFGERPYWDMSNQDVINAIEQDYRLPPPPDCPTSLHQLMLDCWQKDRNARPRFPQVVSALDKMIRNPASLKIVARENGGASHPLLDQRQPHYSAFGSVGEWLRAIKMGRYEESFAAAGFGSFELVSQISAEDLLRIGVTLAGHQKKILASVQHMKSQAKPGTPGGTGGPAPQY

EphA2 receptor [9] = target: EphA2 receptor (Mus musculus, UniProt Q03145); assay: Surface plasmon resonance; assay type: binding; details: for Kd: SPR
EphA2 receptor (Mus musculus, UniProt Q03145), sequence (Q03145 26-538 limits assumed): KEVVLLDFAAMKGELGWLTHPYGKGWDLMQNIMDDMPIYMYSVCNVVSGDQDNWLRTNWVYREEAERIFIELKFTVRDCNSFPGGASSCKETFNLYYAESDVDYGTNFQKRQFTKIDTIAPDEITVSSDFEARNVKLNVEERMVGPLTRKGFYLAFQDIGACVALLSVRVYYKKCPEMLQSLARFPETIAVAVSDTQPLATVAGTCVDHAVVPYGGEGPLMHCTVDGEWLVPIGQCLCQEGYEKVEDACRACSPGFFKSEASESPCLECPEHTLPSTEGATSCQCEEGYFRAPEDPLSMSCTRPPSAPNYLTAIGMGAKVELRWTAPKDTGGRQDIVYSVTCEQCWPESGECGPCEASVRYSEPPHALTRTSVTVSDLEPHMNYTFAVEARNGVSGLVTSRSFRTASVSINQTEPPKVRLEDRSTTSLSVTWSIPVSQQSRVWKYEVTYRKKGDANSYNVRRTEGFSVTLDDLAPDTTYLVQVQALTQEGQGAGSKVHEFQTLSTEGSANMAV

T1 sequence (Q03145 26-538 limits assumed): as above
T2 sequence (P00533 25-1210): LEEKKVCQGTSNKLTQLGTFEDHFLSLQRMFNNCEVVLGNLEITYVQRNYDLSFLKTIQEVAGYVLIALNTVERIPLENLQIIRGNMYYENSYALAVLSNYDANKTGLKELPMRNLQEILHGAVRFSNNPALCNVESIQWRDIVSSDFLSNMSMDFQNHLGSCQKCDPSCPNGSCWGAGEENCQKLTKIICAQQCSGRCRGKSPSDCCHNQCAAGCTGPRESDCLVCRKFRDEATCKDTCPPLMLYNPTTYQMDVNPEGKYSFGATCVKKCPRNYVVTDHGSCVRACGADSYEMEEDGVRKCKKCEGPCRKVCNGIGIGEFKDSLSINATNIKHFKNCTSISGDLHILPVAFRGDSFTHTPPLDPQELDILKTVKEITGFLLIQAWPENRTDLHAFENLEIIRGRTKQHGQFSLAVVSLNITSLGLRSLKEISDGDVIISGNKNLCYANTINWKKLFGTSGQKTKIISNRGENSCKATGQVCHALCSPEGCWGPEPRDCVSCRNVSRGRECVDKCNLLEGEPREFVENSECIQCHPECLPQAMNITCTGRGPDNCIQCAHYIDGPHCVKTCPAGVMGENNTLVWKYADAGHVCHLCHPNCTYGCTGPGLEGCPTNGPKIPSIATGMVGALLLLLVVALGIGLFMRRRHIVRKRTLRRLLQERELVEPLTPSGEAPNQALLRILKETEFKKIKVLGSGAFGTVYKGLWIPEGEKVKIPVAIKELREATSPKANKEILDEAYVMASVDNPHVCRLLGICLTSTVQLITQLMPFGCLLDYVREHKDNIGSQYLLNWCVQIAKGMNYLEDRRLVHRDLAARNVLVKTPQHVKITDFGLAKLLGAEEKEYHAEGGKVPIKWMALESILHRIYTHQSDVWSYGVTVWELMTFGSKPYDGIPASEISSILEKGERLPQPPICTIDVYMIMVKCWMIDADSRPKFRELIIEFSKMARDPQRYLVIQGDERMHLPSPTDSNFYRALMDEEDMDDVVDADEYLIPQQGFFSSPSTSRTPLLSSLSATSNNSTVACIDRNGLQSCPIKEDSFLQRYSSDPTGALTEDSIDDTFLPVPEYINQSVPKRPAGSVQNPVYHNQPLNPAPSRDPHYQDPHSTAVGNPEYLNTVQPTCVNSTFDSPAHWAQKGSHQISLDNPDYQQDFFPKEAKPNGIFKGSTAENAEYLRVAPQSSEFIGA
EphA2 receptor (Homo sapiens, UniProt P29317), sequence (P29317 24-976): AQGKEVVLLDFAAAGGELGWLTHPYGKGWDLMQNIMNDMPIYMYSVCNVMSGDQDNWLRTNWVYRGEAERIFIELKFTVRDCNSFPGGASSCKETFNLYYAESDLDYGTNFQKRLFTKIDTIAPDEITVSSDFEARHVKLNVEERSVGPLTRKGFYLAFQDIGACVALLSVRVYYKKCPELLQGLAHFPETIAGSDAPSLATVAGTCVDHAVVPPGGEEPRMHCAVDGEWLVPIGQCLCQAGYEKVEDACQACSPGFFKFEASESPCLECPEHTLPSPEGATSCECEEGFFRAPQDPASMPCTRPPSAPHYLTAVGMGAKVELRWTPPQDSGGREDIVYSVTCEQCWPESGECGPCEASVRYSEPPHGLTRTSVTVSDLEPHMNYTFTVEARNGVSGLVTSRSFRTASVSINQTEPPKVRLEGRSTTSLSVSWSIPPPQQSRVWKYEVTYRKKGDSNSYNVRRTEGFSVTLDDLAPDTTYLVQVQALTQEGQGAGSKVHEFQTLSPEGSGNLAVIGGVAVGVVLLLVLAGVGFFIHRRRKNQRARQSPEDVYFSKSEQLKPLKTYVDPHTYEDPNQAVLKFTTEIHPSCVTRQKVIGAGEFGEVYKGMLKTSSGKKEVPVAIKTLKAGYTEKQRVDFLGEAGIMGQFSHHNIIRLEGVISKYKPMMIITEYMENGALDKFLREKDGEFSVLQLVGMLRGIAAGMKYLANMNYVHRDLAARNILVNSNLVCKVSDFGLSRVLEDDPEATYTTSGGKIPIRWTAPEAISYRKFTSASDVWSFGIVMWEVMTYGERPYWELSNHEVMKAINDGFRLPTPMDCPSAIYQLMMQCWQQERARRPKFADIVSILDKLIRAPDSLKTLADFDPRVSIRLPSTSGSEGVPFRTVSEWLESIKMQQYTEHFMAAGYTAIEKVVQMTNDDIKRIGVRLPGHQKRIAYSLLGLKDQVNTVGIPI

SMILES	Ki [1]	Activity in EphA2-ephrin-A1 binding assay, in words [1]	further results
C[C@H](CCCO)[C@H]1CC[C@H]2[C@@H]3CC[C@@H]4C[C@H](O)CC[C@]4(C)[C@H]3CC[C@]12C [Compound 16, (3α,5β)-Cholan-3,24-diol]	186 ± 27 µM	inactive or weakly active	
COC(=O)CC[C@@H](C)[C@H]1CC[C@H]2[C@@H]3CC[C@@H]4C[C@H](O)CC[C@]4(C)[C@H]3CC[C@]12C [Compound 13, methyl (3α,5β)-3-hydroxycholan-24-oate]	> 200 µM	inactive or weakly active	
C[C@H](CCC(=O)NO)[C@H]1CC[C@H]2[C@@H]3CC[C@@H]4C[C@H](O)CC[C@]4(C)[C@H]3CC[C@]12C [Compound 14, (3α,5β)-3-Hydroxycholan-24-hydroxamic acid]	> 200 µM	inactive or weakly active	
C[C@H](CCC(=O)O)[C@H]1CC[C@H]2[C@@H]3[C@H](O)C[C@@H]4C[C@H](O)CC[C@]4(C)[C@H]3C[C@H](O)[C@]12C [Compound 2, cholic acid]	> 200 µM	inactive	
C[C@H](CCC(=O)O)[C@H]1CC[C@H]2[C@@H]3[C@H](O)C[C@@H]4C[C@H](O)CC[C@]4(C)[C@H]3CC[C@]12C [Compound 4, chenodeoxycholic acid]	> 200 µM	inactive	
C[C@H](CCC(=O)O)[C@H]1CC[C@H]2[C@@H]3CC[C@@H]4C[C@H](O)CC[C@]4(C)[C@H]3CC[C@]12C [Compound 1, (3α,5β)-3-hydroxycholan-24-oic acid]			Effect on insulin-like growth factor receptor 1 [2]: lack of effects; Effect on EGF receptor (EGF receptor [3]): lack of effects; Effect on VEGF receptor (VEGF receptor): lack of effects; Effect on insulin receptor (insulin receptor): lack of effects; Ki [4]: 49 ± 3 µM
C[C@H](CCC(=O)O)[C@H]1CC[C@H]2[C@@H]3CC[C@@H]4CCCC[C@]4(C)[C@H]3CC[C@]12C [Compound 12, (5β)-cholan-24-oic acid]	5.1 ± 1.4 µM		Selectivity between Eph receptor subfamilies, in words [5]: more selective for the EphA receptor subfamily; Effect on EGF receptor activation induced by EGF (EGF receptor [6]): did not interfere; Stimulation of EphA2 tyrosine phosphorylation by compound on its own (EphA2 receptor [7]): did not stimulate; Effect on EphA2 kinase activity [8]: did not affect; Schild plot slope ([1]; listed as cholanic acid): 0.98 ± 002; Stimulation of EphB4 tyrosine phosphorylation by compound on its own (EphB4 receptor): did not stimulate; Kd (EphA2 receptor [9]; KD from steady state analysis, steady state affinity): 1.16 µM; Kd (EphA2 receptor [9]; affinity constant (KD) from kinetic analysis, koff/kon): 8.45 µM; kon (EphA2 receptor [9]; read-out: association rate (kon)): 44000 M⁻¹ s⁻¹; koff (EphA2 receptor [9]; read-out: dissociation rate (koff)): 0.369 s⁻¹
C[C@H](CCC(=O)O)[C@H]1CC[C@H]2[C@@H]3CC[C@@H]4C[C@@H](S(=O)(=O)O)CC[C@]4(C)[C@H]3CC[C@]12C [Compound 11, (3β,5β)-3-sulfocholan-24-oic acid]	> 200 µM	inactive	
C[C@H](CCC(=O)O)[C@H]1CC[C@H]2[C@@H]3CC[C@@H]4C[C@H](O)CC[C@]4(C)[C@H]3C[C@H](O)[C@]12C [Compound 3, deoxycholic acid]	> 200 µM	inactive	
C[C@H](CCC(=O)O)[C@H]1CC[C@H]2[C@@H]3CC[C@@H]4C[C@@H](O)CC[C@]4(C)[C@H]3CC[C@]12C [Compound 10, (3β,5β)-3-hydroxycholan-24-oic acid]			IC50 [1]: 67 µM; Schild plot slope ([1]; listed as isolithocholic): 0.96 ± 007
C[C@H](CCC(=O)NN)[C@H]1CC[C@H]2[C@@H]3CC[C@@H]4C[C@H](O)CC[C@]4(C)[C@H]3CC[C@]12C [Compound 15, (3α,5β)-3-Hydroxycholan-24-hydrazide]	> 200 µM	inactive or weakly active	
